Results from patent US10058563B2, “System and method for diagnosis and treatment” (Pop Test Oncology Limited Liability Company, priority 2011, dated 2018).
Values after ≈ are worked out from the molar mass of the structure shown. Like-named read-outs stand apart in the source and are kept apart here. Values belong to the compound of their own block, whether it stands above or below them.

Tests used:
[1] = test system: mineralocorticoid, progesterone, estrogen and androgen receptors; details: such as those for estrogen and progesterone; cited from earlier work
glucocorticoid receptor = biological target: T1, glucocorticoid receptor (Homo sapiens, UniProt P04150); details: disclosed in U.S. Pat. No. 6,011,025; cited from earlier work
T1 sequence (P04150 1-777): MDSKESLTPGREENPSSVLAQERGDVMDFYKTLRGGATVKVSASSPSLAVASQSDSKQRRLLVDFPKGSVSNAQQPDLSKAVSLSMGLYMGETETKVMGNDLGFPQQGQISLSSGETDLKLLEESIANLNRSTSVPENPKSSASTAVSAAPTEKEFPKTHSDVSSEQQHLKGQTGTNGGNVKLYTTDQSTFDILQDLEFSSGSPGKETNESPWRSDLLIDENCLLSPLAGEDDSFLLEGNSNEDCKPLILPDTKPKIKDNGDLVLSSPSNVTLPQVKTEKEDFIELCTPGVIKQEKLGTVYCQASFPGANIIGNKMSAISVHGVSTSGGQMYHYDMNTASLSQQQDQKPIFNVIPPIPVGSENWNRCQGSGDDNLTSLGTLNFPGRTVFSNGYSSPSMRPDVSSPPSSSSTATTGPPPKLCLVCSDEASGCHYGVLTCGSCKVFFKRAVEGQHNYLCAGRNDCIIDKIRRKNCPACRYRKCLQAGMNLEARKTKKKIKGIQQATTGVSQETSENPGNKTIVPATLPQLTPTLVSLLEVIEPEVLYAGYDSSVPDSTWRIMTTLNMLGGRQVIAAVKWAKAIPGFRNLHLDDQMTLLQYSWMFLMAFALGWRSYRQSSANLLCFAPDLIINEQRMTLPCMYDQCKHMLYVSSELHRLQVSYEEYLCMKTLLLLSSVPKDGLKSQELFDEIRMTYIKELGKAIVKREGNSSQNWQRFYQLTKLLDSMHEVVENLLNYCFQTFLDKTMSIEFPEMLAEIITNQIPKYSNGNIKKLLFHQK

[2] = Solubility in different solvents; format: physicochemical
Protocol: The solubility of (11β,17β)-11-(1,3-benzodioxol-5-yl)-17-hydroxy-17-(1-propynyl)estra-4,9-dien-3-one is determined in different solvents. These solutions can be of use for clinical treatment with the advantages as mentioned above.

[3] = test system: TNBC (Triple Negative Breast Cancer; MDA-MB-231) cells; assay: Xenografted breast tumor growth, ORG 34517 plus Taxol (Example 1); format: in vivo, CB-17 SCID mice; details: for relative tumor growth: N=3, control Veh/Veh 379%
Protocol: This study is performed to obtain evidence for enhancement of chemotherapy sensitivity of GR+/ER−/PR−/Her2-neu− breast cancer cells by blocking stress-mediated cell survival pathways with a GR antagonist. In the present pilot study, the GR antagonist ORG 34517, is investigated, in one dose, in combination with the chemotherapeutic agent Taxol. Both the Taxol and ORG 34517 doses are selected based on previous experiments.
Materials and Methods—1×107 TNBC (Triple Negative Breast Cancer; MDA-MB-231) cells in 50 ul of PBS (phosphate buffered saline) are injected into the mammary fat pad of 4-5 week old CB-17 SCID mice (Taconic Labs). The mice are allowed to form xenografted breast tumors of approximately 200 mm3 volume. When tumors reach an average of 200 mm3 (Week “0”), 15 mice are separated into the 3 treatment groups 1) vehicle, 2) paclitaxel (Taxol), 3) ORG 34517+ paclitaxel. The used paclitaxel dose is 10 mg/kg/day dissolved in Ethanol/Sesame Oil; ORG 34517 is administered in the maximum soluble dose of 20.5 mg/kg/day dissolved in Ethanol/Castor Oil. The mice receive intraperitoneal injections (200 ul) of drugs for 5 consecutive days (day 1-5). Tumors are measured three times per week. Tumor size is both expressed as absolute volume and as relative growth in comparison to baseline (day 0).
Results—Treatment of the animals is started when the tumor has a volume of at least 100 mm3. The total experimental group consisted of 15 animals. In 6 animals the tumor growth was considered not sufficient. […] In the control situation the tumor grows within 13 days with about 800 mm3 (see raw data). To correct for baseline differences, for each animal the relative tumor growth is calculated. Relative growth is defined as (tumor size day x−tumor size day 0)/tumor size day 0. Group averages for the relative tumor growth are depicted in FIG. 1. In the control condition (VehlVeh) the relative growth is 379%. […] A further reduction of the growth is induced by the addition of ORG 34517 (517/Taxo). The relative growth of this latter group is 100%.
A repeated measures ANOVA did reveal a significant time-effect (F5,36)=2.73; p=0.035), a significant treatment effect (F(2,36)=26.86; p=0.000) and a significant interaction (F(10,36)=2.36; p=0.029). […] This statistical analysis should be considered explorative because of the pilot nature of the study.

[4] = Behaviour in conventional dosage forms (capsule or tablet); format: in vivo; details: like a capsule or a tablet
Excerpt: Another dosage form than a conventional tablet or capsule may be able to circumvent these issues.

[5] = all phase I and phase II clinical trials performed with the compound; cited from earlier work
[6] = test system: ER-GR+ human breast cancer cells; assay: Tumor volume in mice implanted with ER-GR+ breast cancer cells (Example 2); format: in vivo; details: i.p. vehicle alone vs Paclitaxel alone vs Paclitaxel and ORG 34517; 3 mice per group
Excerpt: (§1) As tumor volume in each mouse approached the test threshold of 200 mm3, the mice were randomized to receive intraperitoneal injections of vehicle alone, chemotherapy (Paclitaxel) alone, and chemotherapy and ORG 34517. Each group contained 3 mice.
as §1, with “Mice were implanted with cultured ER-GR+ human breast cancer cells. As” for “As”

[7] = disclosed in U.S. Pat. No. 6,011,025; cited from earlier work

solubility ([2]; Arachis oil): 2.46 mg/g | solubility ([2]; Benzylalcohol): 390 mg/g | solubility ([2]; Castor oil): 7.38 mg/g | solubility ([2]; Castor oil:benzylbenzoate (90:10)): 15.0 mg/g | solubility ([2]; Castor oil:propylene glycol laurate (0.55:0.45; v:v)): 9.4 mg/g | solubility ([2]; Corn oil): 2.58 mg/g | solubility ([2]; Cremophor EL): 23 mg/g | solubility ([2]; Gelicure 44/14, oil or lipid, read-out: Solubility): 100 mg/mL (≈ 232000 µM) | solubility ([2]; Glucofurol:water (50:50), aqueous with cosolvent or surfactant or cyclodextrin, read-out: Solubility): 0.7 mg/mL (≈ 1630 µM) | solubility ([2]; Glycoferol, organic solvent or mixture, read-out: Solubility): 118 mg/mL (≈ 274000 µM) | solubility ([2]; HPβCD, 10% in water, aqueous with cosolvent or surfactant or cyclodextrin, read-out: Solubility): 0.207 mg/mL (≈ 481 µM) | solubility ([2]; HPβCD, 20% in water, aqueous with cosolvent or surfactant or cyclodextrin, read-out: Solubility): 0.395 mg/mL (≈ 917 µM) | solubility ([2]; HPβCD, 40% in water, aqueous with cosolvent or surfactant or cyclodextrin, read-out: Solubility): 0.8 mg/mL (≈ 1860 µM) | solubility ([2]; Medium Chain monoglyceride/glycerol monocaprylate): 28 mg/g | solubility ([2]; Miglyol 812): 4.5 mg/g | solubility ([2]; Mulgofen:water (5:95), aqueous with cosolvent or surfactant or cyclodextrin, read-out: Solubility): 2 mg/mL (≈ 4650 µM) | solubility ([2]; Olive oil): 2.26 mg/g | solubility ([2]; PEG 400, organic solvent or mixture, read-out: Solubility): 34.4 mg/mL (≈ 79900 µM) | solubility ([2]; PEG 400:water (60:40), aqueous with cosolvent or surfactant or cyclodextrin, read-out: Solubility): 0.0006 mg/mL (≈ 1.39 µM) | solubility ([2]; PEG 1500, organic solvent or mixture, read-out: Solubility): 37 mg/mL (≈ 85900 µM) | solubility ([2]; Polysorbate in water (0.5%)): <LOD | solubility ([2]; Soy oil): 2.70 mg/g | solubility ([2]; Span 80): 7 mg/g | solubility ([2]; TPGS:PEG 400:propyleneglycol (12:17:55), organic solvent or mixture, read-out: Solubility): 0.7 mg/mL (≈ 1630 µM) | solubility ([2]; TPGS:PEG 400:propyleneglycol (20:60:5), organic solvent or mixture, read-out: Solubility): 0.9 mg/mL (≈ 2090 µM) | solubility ([2]; acetone, organic solvent or mixture, read-out: Solubility): > 10 mg/mL | solubility ([2]; acetonitrile, organic solvent or mixture, read-out: Solubility): > 10 mg/mL | solubility ([2]; aqueous with cosolvent or surfactant or cyclodextrin, TPGS:d-Alpha Tocopheryl Polyethylene Glycol 1000 Succinate (20%, as delivered), read-out: Solubility): 1.1 mg/mL (≈ 2550 µM) | solubility ([2]; dimethylsulfoxide, organic solvent or mixture, read-out: Solubility): > 100 mg/mL | solubility ([2]; dog bile:phosphate buffer (1:1), plasma or biological fluid, Dog bile:phosphate buffer (pH = 6.5) (1:1), read-out: Solubility): ~0.08 mg/mL (≈ 186 µM) | solubility ([2]; ethanol, organic solvent or mixture, read-out: Solubility): > 10 mg/mL | solubility ([2]; ethanol:PEG 400:propylene glycol (10:50:40), organic solvent or mixture, read-out: Solubility): 28.6 mg/mL (≈ 66400 µM) | solubility ([2]; ethanol:PEG 400:propylene glycol:water (10:40:40:10), aqueous with cosolvent or surfactant or cyclodextrin, read-out: Solubility): 14 mg/mL (≈ 32500 µM) | solubility ([2]; methanol, organic solvent or mixture, read-out: Solubility): > 10 mg/mL | solubility ([2]; propylene glycol, organic solvent or mixture, read-out: Solubility): 8.9 mg/mL (≈ 20700 µM) | solubility ([2]; water with sodium lauryl sulphate 0.5% w/v, aqueous with cosolvent or surfactant or cyclodextrin, Water-Sodium lauryl sulphate (0.5% w/v), read-out: Solubility): 0.24 mg/mL (≈ 557 µM) | solubility ([2]; water with sodium lauryl sulphate 1.0% w/v, aqueous with cosolvent or surfactant or cyclodextrin, Water-Sodium lauryl sulphate (1.0% w/v), read-out: Solubility): 0.377 mg/mL (≈ 876 µM) | solubility ([2]; water, read-out: Solubility): 0.003 mg/mL (≈ 6.97 µM)
SMILES: CC#C[C@]1(O)CC[C@H]2[C@@H]3CCC4=CC(=O)CCC4=C3[C@@H](c3ccc4c(c3)OCO4)C[C@@]21C [ORG 34517, (11β,17β)-11-(1,3-benzodioxol-5-yl)-17-hydroxy-17-(1-propynyl) estra-4,9-dien-3-one]
cross-binding to other related steroidal hormone receptors [1]: without significant cross-binding | glucocorticoid receptor binding affinity (glucocorticoid receptor): high | tumor growth in comparison to Veh/Taxo treatment ([3]; 517/Taxo, all three animals, individual scores): decreased tumor growth | relative tumor growth ([3]; ORG 34517 20.5 mg/kg/day + Taxol 10 mg/kg/day i.p. day 1-5 (517/Taxo)): 100% | animals with tumor shrinkage during treatment ([3]; ORG 34517 20.5 mg/kg/day + Taxol 10 mg/kg/day i.p. for 5 days): 2 out of 3 | effect on the chemotherapeutic effect of Taxol ([3]; ORG 34517 i.p. 20.5 mg/kg/day for 5 days): potentiated the chemotherapeutic effect of Taxol | exposure behaviour [4]: low exposure, high dose variability, large food effect and non-dose linearity | significant toxicities and side effects [5]: none were identified | attained tumor volume [6]: significant differences in attained tumor volume | androgenic and progestagenic activities [7]: low

SMILES: CC(=O)O[C@H]1C(=O)[C@@]2(C)[C@H]([C@H](OC(=O)c3ccccc3)[C@]3(O)C[C@H](OC(=O)[C@H](O)[C@@H](NC(=O)c4ccccc4)c4ccccc4)C(C)=C1C3(C)C)[C@]1(OC(C)=O)CO[C@@H]1C[C@@H]2O [Taxol, paclitaxel, reference compound]
relative tumor growth ([3]; Taxol 10 mg/kg/day i.p. day 1-5 (Veh/Taxo)): 183% | effect on tumor growth ([3]; Taxol injections alone): reduced the tumor growth
